Source: article PMC7294809, “Discovery of an Allosteric Binding Site in Kinetoplastid Methionyl-tRNA Synthetase” (ACS Infectious Diseases, 2020)
In brackets after ≈: the same amount, converted by molar mass. Where two headings read alike, the source gives them in different places. Marks after values point to notes of the source that are not given here.

What was measured:
[1] = Aqueous solubility, filtration-based method; format: physicochemical; conditions: phosphate-buffered saline pH 7.4, 24 h, 25 °C; for solubility at 24 h: aqueous buffer, kinetic from dmso stock
Protocol: Solubility was assessed using a filtration-based method. Test compounds were dissolved in DMSO to give 10 mM solutions. Five microliters of the 10 mM solution was added to 195 μL of phosphate-buffered saline at pH 7.4 and mixed for 24 h (rotary mixing, 900 rpm, 25 °C) excluding light. After mixing, the samples were filtered to remove any undissolved material using a Millipore Multiscreen HTS filter. The filtrate was analyzed for dissolved drug compounds using UHPLC.

CHI LogD measurement = format: physicochemical
Protocol: CHI LogD measurements were performed as described elsewhere.[29] cLogP measurements were calculated using StarDrop (Optibrium).

LdMetRS [2] = target: T1, LdMetRS (Leishmania donovani, UniProt A0A3Q8IBX2); experiment: LdMetRS BIOMOL Green biochemical assay, 10-point dose response
TcMetRS [3] = target: T2, TcMetRS (Trypanosoma cruzi, UniProt Q4D6H2); experiment: TcMetRS BIOMOL Green biochemical assay, 10-point dose response; conditions: for TcMetRS Maximum % Inhibition Plateau: Table 3, plateau of dose-response curve; for Emax: read-out: TcMetRS Maximum % Inhibition
LdMetRS [4] = target: T1, LdMetRS; experiment: LdMetRS mode of inhibition studies; format: biochemical; conditions: for Ki / h (inhibitor Hill slope) / β (fraction of activity remaining) / Vmax / n (substrate Hill slope) / Ks: LdMetRS; for Ki: fit to eq 7, ± SE of fit; for Vmax: global fit parameter; for n (substrate Hill slope) / Ks: global fit; for Ks: substrate dissociation constant
Source text: Subsequent full mode of inhibition studies with compounds from the MetRS02 series were more challenging due to the partial inhibition profiles of some compounds resulting in poor global fits to the standard competitive, uncompetitive, and noncompetitive inhibition models (eqs 3, 4, and 5, respectively). In addition, during the enzymatic characterization of methionine binding to LdMetRS, a Hill slope of <1 was obtained (and was hypothesized to be due to conformational selection).[6] This low Hill slope is also not factored into the standard inhibition models described (eqs 3–5). New models with additional parameters to account for the partial inhibition and low methionine Hill slope were therefore required (eqs 6 and 7). Using these modified equations, the mode of inhibition of compound 27 was carried out by testing LdMetRS enzyme activity under varying substrate concentrations at various inhibitor concentrations (Figure 5). The cooperative, noncompetitive, partial inhibition model (eq 7) was confirmed as the best fit (using F-test analyses), with a noncompetitive mode of inhibition consistent with binding in an allosteric binding pocket. The returned fit parameters are shown in Table 4 and are presented with the standard error (SE) of the fit to eq 7.
(§1) Using GraFit v6.0 (Erithacus Software), each data set was globally fitted to standard competitive, uncompetitive, and noncompetitive inhibition models (eqs 3–5).
(§2) Equation 5 (noncompetitive inhibition model): [drawing 5] 5 On the basis of poor data fits to the above models, partial inhibition and cooperativity parameters were introduced into the uncompetitive and noncompetitive models as previously described by Skovpen et al.[30],[31] Mode of inhibition data were globally fitted to these modified equations (eqs 6 and 7).
(§3) Equation 7 (cooperative, noncompetitive, partial inhibition model): [drawing 7] 7 v is the velocity, Vmax is the maximum velocity, [S] is the substrate concentration, [I] is the inhibitor concentration, Ki is the inhibitor constant, Ks is the substrate dissociation constant, n is the substrate Hill slope, h is the inhibitor Hill slope, and β is the proportionality constant (fraction of activity remaining when the enzyme is fully saturated with inhibitor).
(§4) If more than one model appeared possible, then data were fitted to both and examined for significance using the F-test function in GraFit.

TcMetRS [5] = target: T2, TcMetRS; experiment: TcMetRS mode of inhibition studies; format: biochemical; conditions: TcMetRS, fit to eq 7, ± SE of fit
Source text: It was therefore feasible to perform TcMetRS mode inhibition studies with this compound. These studies, carried out as previously described for LdMetRS, confirm a best fit to the same partial, cooperative, noncompetitive inhibition model (eq 7; Supporting Information Figure 6 and Table 4).
as §1, §2, §3, §4

[6] = chromatographic hydrophobicity index
[7] = 50 μM methionine, 100 μM ATP, 50 nM LdMetRS, pIC50 = −log IC50 (M), read-out: LdMetRS pIC50 (converted)
[8] = plateau of dose-response curve, 50 μM methionine, 100 μM ATP, read-out: LdMetRS Maximum % Inhibition Plateau
[9] = 50 μM methionine, 100 μM ATP, 80 nM TcMetRS, read-out: TcMetRS pIC50 (converted)
[10] = chromatography (chromatographic hydrophobicity index)
[11] = Table 2, 50 μM methionine, 100 μM ATP, read-out: LdMetRS Maximum % Inhibition

T1 sequence (A0A3Q8IBX2 entry or part of it): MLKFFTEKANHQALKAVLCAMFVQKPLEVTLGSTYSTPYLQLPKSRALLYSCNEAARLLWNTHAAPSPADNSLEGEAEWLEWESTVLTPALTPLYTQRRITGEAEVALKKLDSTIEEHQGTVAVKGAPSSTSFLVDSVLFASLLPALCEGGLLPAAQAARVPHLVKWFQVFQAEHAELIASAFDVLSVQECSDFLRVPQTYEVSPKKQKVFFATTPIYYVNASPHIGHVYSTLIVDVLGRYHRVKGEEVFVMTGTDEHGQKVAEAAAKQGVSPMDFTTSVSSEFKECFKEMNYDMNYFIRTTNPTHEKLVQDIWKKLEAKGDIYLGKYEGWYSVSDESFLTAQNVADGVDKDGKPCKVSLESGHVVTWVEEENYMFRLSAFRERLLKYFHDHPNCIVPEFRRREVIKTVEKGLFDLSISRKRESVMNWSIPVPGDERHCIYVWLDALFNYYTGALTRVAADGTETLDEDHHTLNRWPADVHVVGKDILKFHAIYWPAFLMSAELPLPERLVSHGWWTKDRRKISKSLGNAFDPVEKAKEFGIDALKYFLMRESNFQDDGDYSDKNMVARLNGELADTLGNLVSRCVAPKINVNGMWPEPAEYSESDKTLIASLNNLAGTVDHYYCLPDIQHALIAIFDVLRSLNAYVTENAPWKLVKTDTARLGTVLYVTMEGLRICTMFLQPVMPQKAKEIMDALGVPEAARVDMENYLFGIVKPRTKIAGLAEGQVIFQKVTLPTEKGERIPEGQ
T2 sequence (Q4D6H2 entry or part of it): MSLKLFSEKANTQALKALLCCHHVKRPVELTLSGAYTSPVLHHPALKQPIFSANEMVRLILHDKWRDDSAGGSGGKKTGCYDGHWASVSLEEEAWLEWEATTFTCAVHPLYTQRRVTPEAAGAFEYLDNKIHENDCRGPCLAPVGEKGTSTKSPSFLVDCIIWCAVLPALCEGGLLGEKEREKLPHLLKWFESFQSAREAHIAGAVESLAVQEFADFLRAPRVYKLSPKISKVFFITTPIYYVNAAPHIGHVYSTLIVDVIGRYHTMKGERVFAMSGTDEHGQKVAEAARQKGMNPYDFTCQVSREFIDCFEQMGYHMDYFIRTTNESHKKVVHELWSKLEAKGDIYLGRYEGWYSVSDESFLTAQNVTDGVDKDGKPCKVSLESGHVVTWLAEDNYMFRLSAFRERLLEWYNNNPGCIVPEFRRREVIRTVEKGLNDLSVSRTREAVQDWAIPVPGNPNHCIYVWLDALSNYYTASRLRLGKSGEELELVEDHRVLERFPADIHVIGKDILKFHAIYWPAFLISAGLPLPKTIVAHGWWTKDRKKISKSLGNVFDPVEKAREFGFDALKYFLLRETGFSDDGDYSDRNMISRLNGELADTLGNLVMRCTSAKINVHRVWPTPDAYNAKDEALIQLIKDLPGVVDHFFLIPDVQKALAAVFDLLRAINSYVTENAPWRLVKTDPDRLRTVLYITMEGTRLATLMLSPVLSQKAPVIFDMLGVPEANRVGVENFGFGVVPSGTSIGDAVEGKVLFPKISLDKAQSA

Row | SMILES | solubility at 24 h [1] [µM] | chromatographic logD (CHI LogD measurement; [6]) | IC50 (LdMetRS [2]; [7]) [M] | Emax (LdMetRS [2]; [8]) [%] | IC50 (TcMetRS [3]; [9]) [µM] | also measured
1 | CNc1nc(Nc2ccc(F)c(F)c2)nc2c1cnn2C [Compound 18] | 58 (≈ 16.8 µg/mL) | 2.31 | 6.31e-06 | 98.7 | > 100 | –
2 | Cn1ncc2c(N3CCCCC3)nc(Nc3ccc(F)c(F)c3)nc21 [Compound 24] | 0.46 (≈ 0.158 µg/mL) | 3.93 | > 0.0001 | – | > 100 | LdMetRS pIC50 (LdMetRS [2]; 50 μM methionine, 100 μM ATP, 50 nM LdMetRS, pIC50 = −log IC50 (M)): inactive
3 | COC(=O)[C@@H](CO)Nc1nc(Nc2ccc(F)c(F)c2)nc2c1cnn2C [Compound 30] | 29.8 (≈ 11.3 µg/mL) | 3.78 | 1.26e-06 | 102 | 39.8 | TcMetRS Maximum % Inhibition Plateau (TcMetRS [3]): 93.3%
4 | COC(=O)C1(Nc2nc(Nc3ccc(F)c(F)c3)nc3c2cnn3C)CC1 [Compound 32] | – | 4.91 | 7.94e-07 | 94.7 | > 100 | –
5 | COCCNc1nc(Nc2ccc(F)c(F)c2)nc2c1cnn2C [Compound 21] | 23.3 (≈ 7.79 µg/mL) | 2.49 | 6.31e-06 | 99.7 | > 100 | –
6 | Cn1ncc2c(NCCO)nc(Nc3ccc(F)c(F)c3)nc21 [Compound 5] | – | – | 1.26e-05 | 98.7 | – | chromatographic logD (CHI LogD measurement; [10]): 1.64
7 | CC(C)Cc1cc(Nc2nc(NCCO)c3cnn(C)c3n2)ccc1F [Compound 16] | – | – | > 0.0001 | – | > 100 | Emax (LdMetRS [2]; [11]): 17.1%; Emax (TcMetRS [3]; 50 μM methionine, 100 μM ATP): 15.4%
8 | COC(=O)[C@H](Nc1nc(Nc2ccc(F)c(F)c2)nc2c1cnn2C)C(C)C [Compound 29] | 39.1 (≈ 15.3 µg/mL) | 6.22 | 7.94e-07 | 100 | 10 | TcMetRS Maximum % Inhibition Plateau (TcMetRS [3]): 51.5%
9 | Cn1ncc2c(NCCO)nc(Nc3cccc(F)c3)nc21 [Compound 4] | – | – | 3.16e-05 | 83.7 | – | chromatographic logD (CHI LogD measurement; [10]): 1.48
10 | Cn1ncc2c(NCCO)nc(Nc3cccc(Cl)c3)nc21 [Compound 3] | – | – | 1.26e-05 | 94.7 | – | chromatographic logD (CHI LogD measurement; [10]): 1.82
11 | CN(c1cccc(F)c1)c1nc(NCCO)c2cnn(C)c2n1 [Compound 12] | – | 1.51 | > 0.0001 | – | > 100 | Emax (LdMetRS [2]; [11]): 10.2%; Emax (TcMetRS [3]; 50 μM methionine, 100 μM ATP): 11.7%
12 | Cn1ncc2c(Nc3ccc(F)c(F)c3)nc(Nc3ccc(F)c(F)c3)nc21 [Compound 17] | 0.38 (≈ 0.148 µg/mL) | 3.82 | > 0.0001 | – | > 100 | –
13 | Cn1ncc2c(NCCO)nc(Nc3ccc(Cl)cc3)nc21 [Compound 1] | – | – | 7.94e-06 | 89.5 | – | –
14 | CNC(=O)CNc1nc(Nc2ccc(F)c(F)c2)nc2c1cnn2C [Compound 26] | 201 (≈ 69.8 µg/mL) | 1.38 | 2e-05 | 68.9 | > 100 | –
15 | CC(C)Oc1cc(Nc2nc(NCCO)c3cnn(C)c3n2)ccc1F [Compound 15] | – | – | > 0.0001 | – | > 100 | Emax (LdMetRS [2]; [11]): 6.9%; Emax (TcMetRS [3]; 50 μM methionine, 100 μM ATP): 5.4%
16 | COc1cc(Nc2nc(NCCO)c3cnn(C)c3n2)ccc1F [Compound 14] | – | – | > 0.0001 | – | > 100 | Emax (LdMetRS [2]; [11]): 36.8%; Emax (TcMetRS [3]; 50 μM methionine, 100 μM ATP): 4.9%
17 | CC(C)Nc1nc(NCCO)c2cnn(C)c2n1 [Compound 11] | – | 0.63 | > 0.0001 | – | > 100 | Emax (LdMetRS [2]; [11]): 5.3%; Emax (TcMetRS [3]; 50 μM methionine, 100 μM ATP): 6.3%
18 | CN(CCO)c1nc(Nc2ccc(F)c(F)c2)nc2c1cnn2C [Compound 20] | 2.4 (≈ 0.802 µg/mL) | 1.99 | 2.51e-06 | 69.9 | > 100 | –
19 | Cn1ncc2c(NC3CCOCC3)nc(Nc3ccc(F)c(F)c3)nc21 [Compound 23] | 0.59 (≈ 0.213 µg/mL) | 2.45 | 7.94e-06 | 65.4 | > 100 | –
20 | CN(C)c1nc(Nc2ccc(F)c(F)c2)nc2c1cnn2C [Compound 19] | 4.8 (≈ 1.46 µg/mL) | 2.88 | – | – | – | Ki (LdMetRS [4]; varied substrate ATP): 1.21 ± 0.06 µM; Ki (LdMetRS [4]; varied substrate methionine): 1.22 ± 0.06 µM; h (inhibitor Hill slope) (LdMetRS [4]; substrate ATP, eq 7): 1.75 ± 0.12; β (fraction of activity remaining) (LdMetRS [4]; substrate ATP, eq 7): 0.55 ± 0.01; Vmax (LdMetRS [4]; substrate ATP, eq 7): 0.292 ± 0.004 μM Piformed/min; n (substrate Hill slope) (LdMetRS [4]; substrate ATP, eq 7): 1.03 ± 0.03 ^b; Ks (LdMetRS [4]; substrate ATP, eq 7): 21.0 ± 0.74 µM; h (inhibitor Hill slope) (LdMetRS [4]; substrate methionine, eq 7): 1.65 ± 0.11; β (fraction of activity remaining) (LdMetRS [4]; substrate methionine, eq 7): 0.57 ± 0.01; Vmax (LdMetRS [4]; substrate methionine, eq 7): 0.359 ± 0.009 μM Piformed/min; n (substrate Hill slope) (LdMetRS [4]; substrate methionine, eq 7): 0.53 ± 0.02; Ks (LdMetRS [4]; substrate methionine, eq 7): 313 ± 35 µM; mode of inhibition, LdMetRS (LdMetRS [4]; best fit by F-test, eq 7): noncompetitive; IC50 (LdMetRS [2]; LdMetRS pIC50, 50 μM methionine, 100 μM ATP, 50 nM LdMetRS, pIC50 = −log IC50 (M)): 1e-06 M; Emax (LdMetRS [2]; read-out: LdMetRS Maximum % Inhibition Plateau): 48.9%; IC50 (TcMetRS [3]): > 100 µM; Ki (TcMetRS [5]; varied substrate ATP): inactive; Ki (TcMetRS [5]; varied substrate methionine): inactive
21 | Cn1ncc2c(NCCO)nc(Nc3ccc(F)cc3F)nc21 [Compound 6] | – | – | 1.26e-05 | 102 | – | –
22 | Cn1ncc2c(NCCO)nc(N3CCCCC3)nc21 [Compound 10] | – | 1.49 | > 0.0001 | – | > 100 | Emax (LdMetRS [2]; [11]): 10.8%; Emax (TcMetRS [3]; 50 μM methionine, 100 μM ATP): 13.6%
23 | COC(=O)C(Cc1c[nH]cn1)Nc1nc(Nc2ccc(F)c(F)c2)nc2c1cnn2C (stereo not drawn) [Compound 31] | 128 (≈ 54.8 µg/mL) | 3.63 | 2e-07 | 100 | 2 | Aqueous Solubility [1]: good solubility; LdMetRS Maximum % Inhibition Plateau (LdMetRS [2]; plateau of dose-response curve, 50 μM methionine, 100 μM ATP): full inhibition
24 | Cn1ncc2c(NCCO)nc(NC3CCCCC3)nc21 [Compound 8] | – | 1.74 | > 0.0001 | – | > 100 | Emax (LdMetRS [2]; [11]): 11.1%; Emax (TcMetRS [3]; 50 μM methionine, 100 μM ATP): 16.3%
25 | Cn1ncc2c(NC3CCCCC3O)nc(Nc3ccc(F)c(F)c3)nc21 (stereo not drawn) [Compound 22] | – | 2.5 | 3.98e-06 | 61 | > 100 | –
26 | COc1ccc(Nc2nc(NCCO)c3cnn(C)c3n2)cc1Cl [Compound 7] | – | – | > 0.0001 | – | – | –
27 | Cc1noc(CNc2nc(Nc3ccc(F)c(F)c3)nc3c2cnn3C)n1 [Compound 28] | 0.72 (≈ 0.268 µg/mL) | – | 6.31e-06 | 68.7 | > 100 | –
28 | Cn1ncc2c(N3CCC[C@H]3CO)nc(Nc3ccc(F)c(F)c3)nc21 [Compound 25] | 6.1 (≈ 2.2 µg/mL) | 2.43 | 7.94e-06 | 87.7 | > 100 | –
29 | Cn1ncc2c(NCCO)nc(Nc3ccc(F)cc3)nc21 [Compound 2] | – | – | 2.51e-05 | 94.2 | – | chromatographic logD (CHI LogD measurement; [10]): 1.32
30 | Cn1ncc2c(NCCO)nc(NC3CCOCC3)nc21 [Compound 9] | – | 0.04 | > 0.0001 | – | > 100 | Emax (LdMetRS [2]; [11]): 17.3%; Emax (TcMetRS [3]; 50 μM methionine, 100 μM ATP): 15%
